Experiments:
Assay type in all cases: in vivo
[1] = system: reserpine-induced hypothermia; test: reversal of reserpine-induced hypothermia test in mice (antireserpine activity); conditions: Mus musculus, Shadbolt et al., read-out: ED50 (median effective dose)
Experimental: A test to evaluate this property was carried out with the compounds of formula I (R = H or CH3 O). The test was carried out in mice as described by Shadbolt et al. in J. Med. Chem. vol. 14 p.837 (1971), and the following results were obtained.

rats = test: teratogenicity in rats; conditions: similar dosage levels
rabbits = test: teratogenicity in rabbits; conditions: similar dosage levels
cats = test: amphetamine-like stereotyped reactions in cats (amphetamine-like CNS stimulant activity); conditions: for amphetamine-like stereotyped reactions: cats, comparative tests at similar dosage levels

SMILES	ED50 [1] [mg/kg]	teratogenicity (rats)	teratogenicity (rabbits)	amphetamine-like stereotyped reactions (cats)	amphetamine-like CNS stimulant activity (cats; as shown by stereotyped reactions in cats)
c1ccc2sc(Nc3ccc(OCCN4CCCC4)cc3)nc2c1 [compound I, R=hydrogen, 2-[4-(2-pyrrolidin-1-ylethoxy)anilino]benzothiazole]	3.7	no evidence of teratogenicity			
c1ccc2oc(Nc3ccc(OCCN4CCCC4)cc3)nc2c1 [2-[4-(2-pyrrolidin-1-ylethoxy)anilino]benzoxazole]		markedly teratogenic	markedly teratogenic		
COc1ccc2sc(Nc3ccc(OCCN4CCCC4)cc3)nc2c1 [compound I, R=methoxy, 5-methoxy-2-[4-(2-pyrrolidin-1-ylethoxy)anilino]benzothiazole]	3.1	no evidence of teratogenicity	no evidence of teratogenicity		
c1ccc2sc(Nc3ccc(OCCN4CCCCC4)cc3)nc2c1 [2-[4-(2-piperidin-1-ylethoxy)anilino]benzothiazole]				causes amphetamine-like stereotyped reactions	
CCN(CC)CCOc1ccc(Nc2nc3ccccc3s2)cc1 [2-[4-(2-diethylaminoethoxy)anilino]benzothiazole]				produces amphetaminelike stereotyped reactions	undesirably high level of amphetamine-like CNS stimulant activity

Reference: patent US3957999A, “Anilinobenzothiazoles as antidepressants” (The Boots Company, priority 1974, dated 1976)
